Legend:
Assay in all cases: biochemical
Set-up in all cases: DiscoverX KINOMEscan scanMAX competition binding panel, single concentration, percent of control; remaining binding: dose or concentration left out as unconfirmed
Conditions in all cases: KINOMEscan binding, percent of control; read-out: Table S4_SCANMAX REPORT - related to Fig. 1 / Percent Control
[1] = molecular target: T1, ABL1(F317I)-nonphosphorylated (Homo sapiens, UniProt P00519, F317I)
T1 construct: nonphosphorylated

[2] = molecular target: CIT (Homo sapiens, UniProt O14578)
[3] = molecular target: CLK1 (Homo sapiens, UniProt P49759)
[4] = molecular target: CLK4 (Homo sapiens, UniProt Q9HAZ1)
[5] = molecular target: DAPK1 (Homo sapiens, UniProt P53355)
[6] = molecular target: EGFR(L747-T751del,Sins) (Homo sapiens, UniProt P00533, DEL747-750/T751S)
[7] = molecular target: T2, ERK4 (Homo sapiens, UniProt P31152)
T2 construct: gene MAPK4

[8] = molecular target: FGFR2 (Homo sapiens, UniProt P21802)
[9] = molecular target: T3, LOK (Homo sapiens, UniProt O94804)
T3 construct: gene STK10

[10] = molecular target: MUSK (Homo sapiens, UniProt O15146)
[11] = molecular target: NEK10 (Homo sapiens, UniProt Q6ZWH5)
[12] = molecular target: PAK4 (Homo sapiens, UniProt O96013)
[13] = molecular target: RIPK4 (Homo sapiens, UniProt P57078)
[14] = molecular target: T4, RSK1(Kin.Dom.2-C-terminal) (Homo sapiens, UniProt Q15418)
T4 construct: gene RPS6KA1; Kin.Dom.2-C-terminal

[15] = molecular target: SGK2 (Homo sapiens, UniProt Q9HBY8)
[16] = molecular target: TIE1 (Homo sapiens, UniProt P35590)
[17] = molecular target: TLK2 (Homo sapiens, UniProt Q86UE8)
[18] = molecular target: WNK1 (Homo sapiens, UniProt Q9H4A3)

Sequence of SGK2 (Q9HBY8 whole entry): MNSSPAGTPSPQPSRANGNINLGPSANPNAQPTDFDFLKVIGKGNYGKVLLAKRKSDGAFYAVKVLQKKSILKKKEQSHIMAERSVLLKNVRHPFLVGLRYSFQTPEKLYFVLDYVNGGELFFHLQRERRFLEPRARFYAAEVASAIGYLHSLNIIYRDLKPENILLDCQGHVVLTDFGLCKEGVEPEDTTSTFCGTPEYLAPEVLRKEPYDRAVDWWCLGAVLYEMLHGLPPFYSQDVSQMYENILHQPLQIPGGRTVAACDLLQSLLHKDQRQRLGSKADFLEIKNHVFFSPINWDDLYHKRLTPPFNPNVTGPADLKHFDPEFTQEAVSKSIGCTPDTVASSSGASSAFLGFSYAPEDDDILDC
Sequence of TIE1 (P35590 whole entry): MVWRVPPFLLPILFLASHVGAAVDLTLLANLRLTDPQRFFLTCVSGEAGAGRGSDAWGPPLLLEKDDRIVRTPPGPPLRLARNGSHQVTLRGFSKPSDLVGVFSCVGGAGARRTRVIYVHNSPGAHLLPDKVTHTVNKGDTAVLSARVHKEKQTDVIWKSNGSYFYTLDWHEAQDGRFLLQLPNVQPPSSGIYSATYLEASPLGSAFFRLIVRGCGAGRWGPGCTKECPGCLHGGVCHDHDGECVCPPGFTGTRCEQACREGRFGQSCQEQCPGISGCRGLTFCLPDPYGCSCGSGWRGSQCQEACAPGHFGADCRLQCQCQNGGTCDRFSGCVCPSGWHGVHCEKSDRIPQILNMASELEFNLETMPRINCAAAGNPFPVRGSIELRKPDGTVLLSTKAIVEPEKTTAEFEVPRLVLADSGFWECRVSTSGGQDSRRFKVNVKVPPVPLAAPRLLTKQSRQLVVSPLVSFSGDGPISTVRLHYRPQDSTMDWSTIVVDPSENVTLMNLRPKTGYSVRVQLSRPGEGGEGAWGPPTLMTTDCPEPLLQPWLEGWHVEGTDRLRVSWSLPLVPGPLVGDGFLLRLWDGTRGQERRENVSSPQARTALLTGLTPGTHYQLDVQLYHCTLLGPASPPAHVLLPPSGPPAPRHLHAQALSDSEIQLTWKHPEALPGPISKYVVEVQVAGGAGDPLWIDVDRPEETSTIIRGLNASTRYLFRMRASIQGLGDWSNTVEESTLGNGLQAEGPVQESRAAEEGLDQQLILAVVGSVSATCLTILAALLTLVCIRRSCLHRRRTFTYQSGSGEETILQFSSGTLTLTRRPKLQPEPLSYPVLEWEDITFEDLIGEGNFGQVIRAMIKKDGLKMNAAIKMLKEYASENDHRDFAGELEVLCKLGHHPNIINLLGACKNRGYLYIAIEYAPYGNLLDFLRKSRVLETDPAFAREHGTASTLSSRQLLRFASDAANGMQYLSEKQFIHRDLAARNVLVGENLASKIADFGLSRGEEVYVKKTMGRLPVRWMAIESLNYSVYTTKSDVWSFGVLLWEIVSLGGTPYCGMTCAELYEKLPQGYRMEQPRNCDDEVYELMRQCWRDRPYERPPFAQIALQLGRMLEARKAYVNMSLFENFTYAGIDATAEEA
T2 sequence (P31152 whole entry): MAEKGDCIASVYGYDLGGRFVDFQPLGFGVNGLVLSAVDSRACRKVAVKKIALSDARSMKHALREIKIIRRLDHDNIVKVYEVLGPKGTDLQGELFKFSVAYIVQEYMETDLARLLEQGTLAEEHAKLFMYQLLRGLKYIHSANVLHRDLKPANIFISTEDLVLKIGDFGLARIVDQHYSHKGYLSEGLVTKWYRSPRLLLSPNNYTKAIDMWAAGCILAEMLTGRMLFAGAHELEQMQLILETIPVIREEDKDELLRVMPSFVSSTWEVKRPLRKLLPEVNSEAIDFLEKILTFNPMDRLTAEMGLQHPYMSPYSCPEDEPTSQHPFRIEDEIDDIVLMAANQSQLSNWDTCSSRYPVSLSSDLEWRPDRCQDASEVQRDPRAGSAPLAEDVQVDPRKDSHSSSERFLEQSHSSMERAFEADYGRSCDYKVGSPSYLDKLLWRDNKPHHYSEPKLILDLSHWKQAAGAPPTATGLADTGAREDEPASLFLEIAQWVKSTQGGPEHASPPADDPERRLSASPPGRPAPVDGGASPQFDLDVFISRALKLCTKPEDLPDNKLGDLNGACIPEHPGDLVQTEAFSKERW
Sequence of EGFR(L747-T751del,Sins) (P00533 with tags, fused parts or gaps DEL747-750/T751S): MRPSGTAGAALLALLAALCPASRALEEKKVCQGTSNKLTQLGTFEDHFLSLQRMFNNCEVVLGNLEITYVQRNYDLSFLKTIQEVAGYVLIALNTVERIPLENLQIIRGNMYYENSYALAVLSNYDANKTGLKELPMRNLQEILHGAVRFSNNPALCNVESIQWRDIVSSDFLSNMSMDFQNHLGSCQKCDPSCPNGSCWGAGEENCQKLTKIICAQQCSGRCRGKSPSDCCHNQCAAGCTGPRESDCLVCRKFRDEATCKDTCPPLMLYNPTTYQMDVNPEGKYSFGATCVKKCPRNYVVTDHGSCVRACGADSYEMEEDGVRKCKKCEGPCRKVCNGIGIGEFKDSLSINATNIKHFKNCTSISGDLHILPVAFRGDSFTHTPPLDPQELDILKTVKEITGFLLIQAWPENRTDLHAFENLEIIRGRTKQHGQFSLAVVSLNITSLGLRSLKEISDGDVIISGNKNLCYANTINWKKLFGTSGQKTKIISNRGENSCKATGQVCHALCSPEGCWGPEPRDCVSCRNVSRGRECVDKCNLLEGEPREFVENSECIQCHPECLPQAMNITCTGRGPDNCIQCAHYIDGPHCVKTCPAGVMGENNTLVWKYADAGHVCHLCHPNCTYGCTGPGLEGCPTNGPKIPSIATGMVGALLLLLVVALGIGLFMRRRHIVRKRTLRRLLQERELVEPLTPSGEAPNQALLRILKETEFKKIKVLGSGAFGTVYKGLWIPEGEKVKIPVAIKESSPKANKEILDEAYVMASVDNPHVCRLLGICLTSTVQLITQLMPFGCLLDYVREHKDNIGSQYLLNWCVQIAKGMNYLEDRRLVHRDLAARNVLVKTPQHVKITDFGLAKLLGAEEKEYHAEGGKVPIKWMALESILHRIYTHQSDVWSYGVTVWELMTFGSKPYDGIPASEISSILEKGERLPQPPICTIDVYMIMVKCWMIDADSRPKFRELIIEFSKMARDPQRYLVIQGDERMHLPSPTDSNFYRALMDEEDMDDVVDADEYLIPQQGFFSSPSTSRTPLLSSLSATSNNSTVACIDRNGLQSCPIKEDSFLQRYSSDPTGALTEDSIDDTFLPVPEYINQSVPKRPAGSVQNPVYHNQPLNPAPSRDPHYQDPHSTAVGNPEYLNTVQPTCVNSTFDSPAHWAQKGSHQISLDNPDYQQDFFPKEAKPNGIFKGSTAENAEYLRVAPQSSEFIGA
T1 sequence (P00519 whole entry F317I): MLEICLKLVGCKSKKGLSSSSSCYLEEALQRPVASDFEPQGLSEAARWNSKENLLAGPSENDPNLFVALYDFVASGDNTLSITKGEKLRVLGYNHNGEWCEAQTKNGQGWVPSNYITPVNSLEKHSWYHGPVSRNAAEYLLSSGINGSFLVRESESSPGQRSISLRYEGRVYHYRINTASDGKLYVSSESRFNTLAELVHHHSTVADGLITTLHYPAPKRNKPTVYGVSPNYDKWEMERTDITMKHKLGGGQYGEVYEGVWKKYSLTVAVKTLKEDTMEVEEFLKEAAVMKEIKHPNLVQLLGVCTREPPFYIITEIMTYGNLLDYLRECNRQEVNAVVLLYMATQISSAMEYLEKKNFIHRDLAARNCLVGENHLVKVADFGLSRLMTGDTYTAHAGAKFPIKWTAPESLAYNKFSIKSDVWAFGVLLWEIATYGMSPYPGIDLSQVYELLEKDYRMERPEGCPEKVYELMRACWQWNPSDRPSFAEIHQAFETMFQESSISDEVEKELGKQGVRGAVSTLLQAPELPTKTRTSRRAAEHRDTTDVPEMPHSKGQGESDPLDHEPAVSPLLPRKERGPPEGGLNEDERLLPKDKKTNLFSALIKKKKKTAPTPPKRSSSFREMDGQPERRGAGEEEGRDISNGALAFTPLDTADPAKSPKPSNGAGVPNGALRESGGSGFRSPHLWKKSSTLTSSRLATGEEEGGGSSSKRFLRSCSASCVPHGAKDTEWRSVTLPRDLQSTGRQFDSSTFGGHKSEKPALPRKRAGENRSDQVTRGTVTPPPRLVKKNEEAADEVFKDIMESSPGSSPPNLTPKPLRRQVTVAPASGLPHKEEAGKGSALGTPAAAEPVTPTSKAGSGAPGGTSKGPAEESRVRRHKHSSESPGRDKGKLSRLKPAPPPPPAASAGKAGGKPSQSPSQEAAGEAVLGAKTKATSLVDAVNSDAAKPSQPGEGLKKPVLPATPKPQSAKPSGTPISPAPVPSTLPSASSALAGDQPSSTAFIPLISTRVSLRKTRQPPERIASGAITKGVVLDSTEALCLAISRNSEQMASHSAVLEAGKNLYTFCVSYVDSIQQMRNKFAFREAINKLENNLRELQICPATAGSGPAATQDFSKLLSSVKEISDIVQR
Sequence of PAK4 (O96013 whole entry): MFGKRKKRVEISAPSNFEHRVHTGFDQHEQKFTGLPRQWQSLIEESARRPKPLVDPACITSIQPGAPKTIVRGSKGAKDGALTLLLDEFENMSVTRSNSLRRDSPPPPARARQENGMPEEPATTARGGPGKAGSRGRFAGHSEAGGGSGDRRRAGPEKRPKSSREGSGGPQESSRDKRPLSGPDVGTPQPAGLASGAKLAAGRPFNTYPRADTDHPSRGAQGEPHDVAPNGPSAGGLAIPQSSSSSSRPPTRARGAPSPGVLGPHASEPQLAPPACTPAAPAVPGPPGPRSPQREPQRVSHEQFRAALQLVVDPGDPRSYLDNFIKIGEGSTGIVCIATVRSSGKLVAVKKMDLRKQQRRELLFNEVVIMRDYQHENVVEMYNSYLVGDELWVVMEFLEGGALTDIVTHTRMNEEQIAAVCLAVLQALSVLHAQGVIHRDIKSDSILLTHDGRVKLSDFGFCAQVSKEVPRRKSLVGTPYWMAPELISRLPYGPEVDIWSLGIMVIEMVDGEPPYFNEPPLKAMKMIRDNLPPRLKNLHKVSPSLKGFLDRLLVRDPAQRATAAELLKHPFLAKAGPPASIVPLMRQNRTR

For `c1ccc2c(c1)Sc1ccccc1N2CCN1CCOCC1` [J54], the remaining binding [1] was 92%, the remaining binding [2] was 88% and the remaining binding [3] was 85%. It also gave a remaining binding [4] of 100%, a remaining binding [5] of 99% and a remaining binding [6] of 92%. It also gave a remaining binding [7] of 100%, a remaining binding [8] of 100% and a remaining binding [9] of 100%. It also gave a remaining binding [10] of 100%, a remaining binding [11] of 97% and a remaining binding [12] of 99%. The remaining binding [13] was 100%, the remaining binding [14] was 100% and the remaining binding [15] was 90%. For the same molecule, the remaining binding [16] was 98%, the remaining binding [17] was 23% and the remaining binding [18] was 94%.

From paper PMC7486443, “Generation of Phenothiazine with Potent Anti-TLK1 Activity for Prostate Cancer Therapy” (iScience, 2020)
